# Experimental data taken from patent publication US12358921B2, “Antiviral heterocyclic compounds” (priority 2022, dated 2025).
# Tests used:
# [1] = system: hMPV A2 TN/94-49; test: HMPV antiviral assay Method 2 (LLC-MK2 cells with CP-100-356, ATP-Lite); format: cell-based; conditions: hMPV A2 TN/94-49, LLC-MK2 cells, 4 μM CP-100-356, Method 2
# Procedure: In vitro HMPV antiviral activity was evaluated using the clinical isolate A2 strain TN 94-49 (obtained from Dr. John Williams, Vanderbilt University, Tennessee) and LLC-MK2 cells (Millipore Sigma CB_85062804), an immortalized kidney epithelial cell line from Macaca mulatta. Compounds were resuspended in dimethyl sulfoxide (DMSO) at 10 mM, serially diluted and added to a 384-well source plate. Subsequently, the compounds were diluted and transferred onto 384-well assay plates using the Echo-650 automated liquid handling system (Beckman Coulter, Indiana). The test compounds were assessed in duplicate at a top concentration of 200 nM followed by 2.5-fold serial dilutions to give a total of 10 concentration points. DMSO control wells were also included on the assay plates and were either infected or not, acting as positive and negative controls. A2 TN 94-49 virus infections were performed in-suspension with LLC-MK2 cells. The cells were washed twice with PBS and removed from the cell-culture flask with 0.25% trypsin-EDTA (Thermo Fisher Scientific, MA). The trypsin-EDTA was inactivated by resuspending in 2% fetal bovine serum (FBS) and OptiMEM (ThermoFisher Scientific, MA) containing 1% antibiotic-antimycotic. Cells were pelleted by centrifuging for 5 minutes at 800 rpm, the supernatant was removed, and cells were re-suspended and washed in PBS plus 100 μg/mL CaCl2). This step was performed twice. Cells were then re-suspended in serum-free (SF)-OptiMEM containing 4 μg/mL TPCK-Trypsin (Sigma Aldrich, MO), 1% antibiotic-antimycotic (ThermoFisher Scientific, MA), 100 μg/mL CaCl2), and 4 μM of CP-100-356, a P-glycoprotein inhibitor. Cells were counted and seeded at a density of 5,000 cells/well, 12.5 μL/well. Virus infections were done at a multiplicity of infection (MOI) of 0.16 with 12.5 μL added per well. Virus infections were performed in infection media which contained SF-OptiMEM, 100 μg/mL CaCl2) and 1% antibiotic-antimycotic. HMPV viral stocks are suspended in infection media+5% glycerol, thus an equal volume of infection media+5% glycerol was added to uninfected wells to equalize the final % glycerol across all wells of the assay plate. The final concentration of TPCK-trypsin was 2 μg/mL. The final concentration of CP-100-356 was 2 μM. The assay plates were incubated at 37° C., 5% CO2 for 7 days. After 7 days incubation, 12.5 μL of ATP-Lite (PerkinElmer, MA) was added to each well and the raw luminescence values were determined using the Envision 2104 (Perkin Elmer, MA). The average of the raw luminescence values for the cells and virus only positive control wells was subtracted from all conditions tested and the percent cell health was determined by dividing these values by the average of the cells only negative control wells. EC50 values were then calculated by non-linear regression using a four-parameter curve logistic equation. The curve fit model employed was XLFit Dose Response One Site Model 200: y=(A+(B/(1+((x/C)^D)))), where A is the minimum y value, B is the maximum y value, C is the log EC50value, and D is the slope factor.
# [2] = system: HUMAN RSV-A (“LONG” STRAIN); test: RSV-A assay (CPE, ATPlite) in Hep-2 cells; format: cell-based; conditions: human respiratory syncytial virus, 120 h, MOI 0.1, 5-day incubation
# Excerpt: Methods for RSV-A Assay Hep-2 cells, (originally derived from tumors grown in irradiated-cortisonised weanling rats that had been injected with epidermoid carcinoma tissue from the larynx of a person, but later found to be indistinguishable from HeLa cells by PCR DNA analysis), were used for the culturing of genotype A, “Long” strain RSV. Flasks were inoculated with RSV and viral stocks were collected once cytopathic effect (CPE) was greater than 90%. Viral stocks in 25% sucrose media were snap frozen using liquid nitrogen to increase viral stability. Viral stock titers were quantified by tissue culture infectious dose 50% (TCID50) using 8,000 cells per well and 3-fold viral dilutions across a 96-well plate, cultured for 4 days. Viral stock titers were also quantified by a plaque forming unit assay, as described elsewhere.
# Following extensive parameter testing, the final assay is run as follows: Hep-2 cells are seeded into the inner 60 wells of a 96-well plate at 8,000 cells per well in a volume of 50 μL using Growth Media (DMEM without phenol red, 1% L-Glut, 1% Penn/Strep, 1% nonessential amino acids, 10% heat-inactivated FBS). 2-fold serial dilutions of control and test compounds are added to the wells in duplicate in a total volume of 25 μL. Viral stock is then added to the wells at a multiplicity of infection (MOI) of 0.1 in a volume of 25 μL, bringing the total volume of each well to 100 μL. The MOI is calculated using the PFU/mL, or TCID50 if unavailable. Each 96-well plate has a control column of 6 wells with cells and virus but no compound (negative control, max CPE), a column with cells but no compound or virus (positive control, minimum CPE), and a column with no cells or virus or compound (background plate/reagent control). The control wells with cells but no virus are given an additional 25 μL of growth media containing an equal quantity of sucrose as those wells receiving the viral stock in order to keep consistent in media and volume conditions. The outer wells of the plate are filled with 125 μL of moat media (DMEM, 1% Penn/Strep) to act as a thermal and evaporative moat around the test wells. Following a 5-day incubation period, the plates are read using ATPlite (50 uL added per well), which quantifies the amount of ATP (a measure of cell health) present in each well. Assay plates are read using the Envision luminometer. […] EC50 ranges are as follows: A<0.2 μM; B>0.2 μM.
EC50 [1],EC50 [2],Compound
< 0.2 µM,< 0.2 µM,COc1cc(C(=O)NC[C@@](O)(c2ccnc(C#N)c2)c2cc3c(c(-c4cc(Cl)c(F)cc4F)n2)OC[C@]3(C)C(N)=O)cc2cn(C3CC3)nc12 [Example 501]
< 0.2 µM,< 0.2 µM,COc1cc(C(=O)NC[C@@](O)(c2ccccc2)c2cc3c(c(-c4cc(C(F)(F)F)c(F)cc4F)n2)OC[C@]3(C)C(N)=O)cc2oc(C3CC3)nc12 [Example 305]
> 0.2 µM,> 0.2 µM,COc1cc(C(=O)NC[C@@](O)(c2cnn(C)c2)c2cc3c(c(-c4cc(Cl)c(F)cc4F)n2)OC[C@]3(C)C(N)=O)cc2cn(C3CC3)nc12 [Example 153]
> 0.2 µM,< 0.2 µM,COc1cc(C(=O)NC[C@@](O)(c2ccc(=O)[nH]c2)c2cc3c(c(-c4cc(Cl)c(F)cc4F)n2)OC[C@]3(C)C(N)=O)cc2cn(C3CC3)nc12 [Example 505]
< 0.2 µM,< 0.2 µM,COc1cc(C(=O)NC[C@@](O)(c2cccc(F)n2)c2cc3c(c(-c4cc(Cl)c(F)cc4F)n2)OC[C@]3(C)C(N)=O)cc2cn(C(F)F)nc12 [Example 205]
< 0.2 µM,< 0.2 µM,COc1cccc([C@](O)(CNC(=O)c2cc(OC)c3nn(C4CC4)cc3c2)c2cc3c(c(-c4cccc(Cl)c4Cl)n2)OC[C@]3(C)C(N)=O)n1 [Example 496]
< 0.2 µM,< 0.2 µM,COc1cc(C(=O)NC[C@@](O)(c2ccccc2)c2cc3c(c(-c4cccc(Cl)c4F)n2)OC[C@]3(C)C(N)=O)cc2cn(C3(F)CC3)nc12 [Example 369]
< 0.2 µM,< 0.2 µM,COc1cc(C(=O)NC[C@@](O)(c2ccccc2)c2cc3c(c(-c4cc(C(F)(F)F)c(F)cc4F)n2)OC[C@]3(C)C(N)=O)cc2cn(C3CC3)nc12 [Example 302]
< 0.2 µM,< 0.2 µM,C[C@]1(C(N)=O)COc2c1cc([C@@](O)(CNC(=O)c1ccc3nn(C4CC4)cc3c1)c1ccccc1)nc2-c1cc(Cl)c(F)cc1F [Example 101]
< 0.2 µM,< 0.2 µM,COc1cc(C(=O)NC[C@@](O)(c2ccccc2)c2cc3c(c(-c4ccc(F)c(F)c4Cl)n2)OC[C@]3(C)C(N)=O)cc2cn(C3(F)CC3)nc12 [Example 370]
< 0.2 µM,< 0.2 µM,COc1cc(C(=O)NC[C@@](O)(c2ccccc2)c2cc3c(c(-c4cc(F)c(F)cc4F)n2)OC[C@]3(C)C(N)=O)cc2oc(C)nc12 [Example 193]
< 0.2 µM,< 0.2 µM,C[C@]1(C(N)=O)COc2c1cc([C@@](O)(CNC(=O)c1cc(F)c3nn(C4CC4)cc3c1)c1ccccc1)nc2-c1cc(Cl)c(F)cc1F [Example 100]
> 0.2 µM,< 0.2 µM,C[C@]1(C(N)=O)COc2c1cc([C@@](O)(CNC(=O)c1ccc3nc(C4CC4)oc3c1)c1cccc(F)c1)nc2-c1cc(C(F)(F)F)c(F)cc1F [Example 308]
< 0.2 µM,< 0.2 µM,C[C@]1(C(N)=O)COc2c1cc([C@@](O)(CNC(=O)c1cc(OC3CC3)c3ncc(Cl)cc3c1)c1ccccc1)nc2-c1cc(F)c(F)cc1F [Example 197]
< 0.2 µM,< 0.2 µM,COc1cc(C(=O)NC[C@@](O)(c2ccncc2)c2cc3c(c(-c4cc(Cl)c(F)cc4F)n2)OC[C@]3(C)C(N)=O)cc2cn(C3CC3)nc12 [Example 152]
< 0.2 µM,< 0.2 µM,COc1cc(C(=O)NC[C@@](O)(c2ccccc2)c2cc3c(c(-c4cccc(Cl)c4Cl)n2)OC[C@]3(C)C(N)=O)cc2oc(C)nc12 [Example 95]
< 0.2 µM,< 0.2 µM,COc1cc(C(=O)NC[C@@](O)(c2cccc(F)n2)c2cc3c(c(-c4cc(Cl)c(F)cc4F)n2)OC[C@]3(C)C(N)=O)cc2cn(C3CC3)nc12 [Example 203]
< 0.2 µM,< 0.2 µM,COc1cc(C(=O)NC[C@@](O)(c2ccccc2)c2cc3c(c(-c4cccc(Cl)c4Cl)n2)OC[C@]3(C)C(N)=O)cc2oc(C3CC3)nc12 [Example 96]
< 0.2 µM,< 0.2 µM,COc1cc(C(=O)NC[C@@](O)(c2ccccc2)c2cc3c(c(-c4cc(F)c(F)cc4F)n2)OC[C@]3(C)C(N)=O)cc2oc(C3CC3)nc12 [Example 195]
< 0.2 µM,< 0.2 µM,COc1cc(C(=O)NC[C@@](O)(c2ccccc2)c2cc3c(c(-c4cc(C(F)(F)F)c(F)cc4F)n2)OC[C@]3(C)C(N)=O)cc2cn(C(F)F)nc12 [Example 304]
< 0.2 µM,< 0.2 µM,COc1cc(C(=O)NC[C@@](O)(c2ccccc2)c2cc3c(c(-c4cc(Cl)c(F)cc4F)n2)OC[C@]3(C)C(N)=O)cc2cc(Cl)nnc12 [Example 113]
< 0.2 µM,< 0.2 µM,C[C@]1(C(N)=O)COc2c1cc([C@@](O)(CNC(=O)c1cc(OC3CC3)c3ncc(Cl)cc3c1)c1ccccc1)nc2-c1ccc(F)c(Cl)c1Cl [Example 313]
> 0.2 µM,> 0.2 µM,COc1cc(C(=O)NC[C@](O)(c2cc3c(c(-c4cc(Cl)c(F)cc4F)n2)OC[C@]3(C)C(N)=O)c2nccn2C)cc2cn(C3CC3)nc12 [Example 464]
< 0.2 µM,< 0.2 µM,COc1cc(C(=O)NCC(O)(c2cc(F)nc(F)c2)c2cc3c(c(-c4cccc(Cl)c4Cl)n2)OC[C@]3(C)C(N)=O)cc2cn(C(F)F)nc12 (stereo partly drawn) [Example 500]
< 0.2 µM,< 0.2 µM,[2H]c1nc2c(OC)cc(C(=O)NC[C@@](O)(c3ccccc3)c3cc4c(c(-c5cc(Cl)c(F)cc5F)n3)OC[C@]4(C)C(N)=O)cc2cc1Cl [Example 220]
> 0.2 µM,< 0.2 µM,COc1cc(C(=O)NC[C@@](O)(c2ccc(S(C)(=O)=O)cc2)c2cc3c(c(-c4cc(Cl)c(F)cc4F)n2)OC[C@]3(C)C(N)=O)cc2cn(C3CC3)nc12 [Example 482]
< 0.2 µM,< 0.2 µM,COc1cc(C(=O)NC[C@@](O)(c2ccccc2)c2cc3c(c(-c4cc(Cl)c(F)cc4F)n2)OC[C@]3(C)C(N)=O)cc2oc(N)nc12 [Example 237]
< 0.2 µM,< 0.2 µM,COc1cc(C(=O)NC[C@@](O)(c2cccc(F)n2)c2cc3c(c(-c4ccc(F)c(Cl)c4Cl)n2)OC[C@]3(C)C(N)=O)cc2cn(C3CC3)nc12 [Example 340]
< 0.2 µM,< 0.2 µM,C[C@]1(C(N)=O)COc2c1cc([C@@](O)(CNC(=O)c1cc(OC3CC3)c3ncc(Cl)cc3c1)c1ccccc1)nc2-c1cc(Cl)c(F)cc1F [Example 196]
> 0.2 µM,> 0.2 µM,COc1cc(C(=O)NC[C@@](O)(c2cccc(F)c2)c2cc3c(c(-c4cc(F)c(F)cc4C(N)=O)n2)OC[C@]3(C)C(N)=O)cc2cn(C3(F)CC3)nc12 [Example 405]
